≈ marks a conversion by molar mass, not a printed value. Where “and” joins values, the source holds several entries; their conditions need not be identical. Equal values may be shown once.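 Dose response: 5 concentrations. Exposure: 48 h. Format: 96-well plates. Endpoint: linear interpolation; highest concentration if not reached. GI50 is the concentration that inhibits growth by half. TGI is the concentration that stops growth completely.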 Where a SMILES comes first, the peptide text is derived from it. [ ]: non-standard residue; d: D form. Ac5c = NC1(C(=O)O)CCCC1
Each compound was assayed on P388/ADR leukemia (assay: NCI tumour cell line growth inhibition, 48 h).

`Cc1c[nH]c2c(O)cc3c(c12)[C@H](CCl)CN3C(=O)c1cc2cc(NC(=O)Nc3ccc4[nH]c(C(=O)N5C[C@@H](CCl)c6c5cc(O)c5[nH]cc(C)c65)cc4c3)ccc2[nH]1` gave a GI50 of 0.888 ng/mL (≈ 0.00109 µM).

With `Cc1c[nH]c2c(O)cc3c(c12)[C@H](CCl)CN3C(=O)c1cc2cc(NC(=O)Nc3ccc4[nH]c(C(=O)N5C[C@@H](CCl)c6c5cc(O)c5[nH]cc(C)c65)cc4c3)ccc2[nH]1` the TGI was 83 ng/mL (≈ 0.102 µM).

What follows are compounds tested on MDA-N (assay: NCI tumour cell line growth inhibition, 48 h).

`Nc1ccc(N(S(=O)(=O)c2ccccc2)S(=O)(=O)c2ccccc2)c(Cl)c1` and `O=C1c2ccccc2C(=O)N1CCCSc1ccccc1` cannot be ordered by TGI: > 100 µM for the first, > 100 µM for the second.

Going from `CN1CCN(CCCN)CC1` to `COc1ccc([N+](=O)[O-])c2c(NCCCN(C)C)c3ccccc3nc12`, the TGI falls from > 100 µM to 1.55 µM.

First: CCN(CC)CCCC(C)Nc1c2ccc(Cl)cc2nc2ccc(OC)cc12 (stereo not drawn)
Second: CCN(CC)CCC(=O)NC1c2ccc(Cl)cc2Oc2c(C)cccc21 (stereo not drawn)
The TGI of the first is 8.2-fold lower: 3.95 µM for the first, 32.3 µM for the second.

`NC1(C(=O)NC2(C(=O)O)CCCC2)CCCC1` (H-[Ac5c]-[Ac5c]-OH) and `CC(=O)CC(=O)Nc1ccc2ccccc2c1` cannot be ordered by TGI: > 100 µM for the first, > 100 µM for the second.

First: Cn1ccnc1CC(C)(O)c1ccccc1 (stereo not drawn)
Second: CCOC(=O)Nc1nc2ccc(Cn3cccc3)cc2[nH]1
The TGI of the first is higher: > 100 µM for the first, 0.965 µM for the second.

`CCC1(CC)C(=O)OC(=O)C1(CC)CC` was tested, and the TGI was > 100 µM.

In order of rising GI50:
1. Cc1c[nH]c2c(O)cc3c(c12)[C@H](CCl)CN3C(=O)c1cc2cc(NC(=O)Nc3ccc4[nH]c(C(=O)N5C[C@@H](CCl)c6c5cc(O)c5[nH]cc(C)c65)cc4c3)ccc2[nH]1  0.0123 µM
2. O=Cc1ccc(-c2cc(C=O)c(-c3cccs3)[nH]2)s1  33.7 µM

`O=Cc1ccc(-c2cc(C=O)c(-c3cccs3)[nH]2)s1` was tested, and the TGI was 75 µM and > 100 µM.
With `COC(=O)CCc1cc(OC)c2c(c1)C(C(=O)OC)C(c1ccc(OC)c(OC)c1)O2` (stereo not drawn) the TGI was > 100 µM and 23.2 µM.

These compounds were tested on P388 leukemia (assay: NCI tumour cell line growth inhibition, 48 h).

`Cc1c[nH]c2c(O)cc3c(c12)[C@H](CCl)CN3C(=O)c1cc2cc(NC(=O)Nc3ccc4[nH]c(C(=O)N5C[C@@H](CCl)c6c5cc(O)c5[nH]cc(C)c65)cc4c3)ccc2[nH]1` was tested, and the GI50 was 0.000887 ng/mL and 0.888 ng/mL.

Source: PubChem BioAssay (NCI)
